This is an account of results in article PMC3406087, “The Molecular Basis of Drug Resistance against Hepatitis C Virus NS3/4A Protease Inhibitors” (PLoS Pathogens, 2012).

In test [1] the target is genotype 1a HCV NS3/4A protease domain (wild-type) (Hepatitis C virus genotype 1a, UniProt A8DG50). As to the kind of experiment: biochemical. On the set-up: species or system HCV genotype 1a.
The test system of the next test is genotype 3 viruses. To be noted: genotype 3 viruses (Q168, T123); cited from earlier work.
In test [2] the test system is D168A genotype 1a HCV Con1 luciferase reporter replicon in Huh7 cells. Put plainly: Viral replicon-based inhibition assay, D168A variant. It counts as cell-based, HCV genotype 1a. The note with it: Hepatitis C virus, Huh-7, 96 h, read-out: Replicon - IC50, D168A. The source says: (§1) Single mutations (R155K, D168A, or A156T) were introduced into the NS3 region of genotype 1a HCV Con1 luciferase reporter replicon using the mega-primer method of mutagenesis. Replicon RNA of each protease variant was introduced into Huh7 cells by electroporation.

Test [3] relates to R155K genotype 1a HCV Con1 luciferase reporter replicon in Huh7 cells. As to the kind of experiment: Viral replicon-based inhibition assay, R155K variant. It counts as cell-based, HCV genotype 1a. The note with it: Hepatitis C virus, Huh-7, 96 h, read-out: Replicon - IC50, R155K.
Excerpt: as §1
In general terms: In antiviral work, replicon cells carry a viral genome segment that copies itself.

For test [4], the system named is wild-type genotype 1a HCV Con1 luciferase reporter replicon in Huh7 cells. Put plainly: Viral replicon-based inhibition assay, wild-type. It counts as cell-based, HCV genotype 1a. To be noted: Hepatitis C virus, Huh-7, luciferase activity 96 hours after electroporation, read-out: Replicon - IC50, WT. The text has this: . The antiviral activities against the resistant variants trended with changes in binding affinities measured in enzyme inhibition assays (Table 1). […]. Single mutations (R155K, D168A, or A156T) were introduced into the NS3 region of genotype 1a HCV Con1 luciferase reporter replicon using the mega-primer method of mutagenesis. Replicon RNA of each protease variant was introduced into Huh7 cells by electroporation. […]. The drug concentrations required to inhibit replicon replication by 50% (IC50) were calculated directly from the drug inhibition curves.

In test [5] the test system is A156T genotype 1a HCV Con1 luciferase reporter replicon in Huh7 cells. As to the kind of experiment: Viral replicon-based inhibition assay, A156T variant. The note with it: Hepatitis C virus, Huh-7, 96 h, read-out: Replicon - IC50, A156T. It counts as cell-based, HCV genotype 1a.
Excerpt: as §1

For test [6], the target named is T1, genotype 1a HCV NS3/4A protease domain A156T (Hepatitis C virus genotype 1a, UniProt P27958, A1182T).
T1 construct: single-chain construct of the genotype 1a NS3/4A protease domain; His-tag (cleaved yes); made in house; host or cells: E. coli BL21 (DE3)
Put plainly: biochemical. Also on record: species or system HCV genotype 1a.

The mark [7] stands for this setting: apparent Ki, Morrison equation, 5 nM protease, triplicate, average ± standard deviation, read-out: Binding - Ki, WT.

Where two headings read alike, the source gives them in different places. Some results are limits rather than exact numbers.

Regarding `CC[C@@H]1C[C@]1(NC(=O)[C@@H]1C[C@@H]2CN1C(=O)[C@H](C(C)(C)C)NC(=O)OCC(C)(C)CCCCc1cccc3c1CN(C3)C(=O)O2)C(=O)NS(=O)(=O)C1CC1` [Vaniprevir (MK-7009), Vaniprevir], the Ki in test [1] (setting [7]) is 0.74 ± 0.07 nM. Besides, in the test with genotype 3 viruses, the “Efficacy against genotype 3 viruses” value is listed as “reduced efficacy”. Also, the IC50 was more than 400 nM in test [2], more than 400 nM in test [3], 0.34 nM in test [4] and 176 nM in test [5].

As for `CCC[C@H](NC(=O)[C@@H]1[C@H]2CCC[C@H]2CN1C(=O)[C@@H](NC(=O)[C@@H](NC(=O)c1cnccn1)C1CCCCC1)C(C)(C)C)C(=O)C(=O)NC1CC1` [Telaprevir (VX-950), Telaprevir], the Ki in test [1] is 34.4 ± 3 nM. Further, the IC50 in test [2] is 420 nM; in test [3] it was 5300 nM; in test [4], 1030 nM; in test [5], more than 50000 nM.

Turning to `C=C[C@@H]1C[C@]1(NC(=O)[C@@H]1C[C@@H]2CN1C(=O)[C@H](C(C)(C)C)NC(=O)O[C@@H]1C[C@H]1CCCCCc1nc3ccc(OC)cc3nc1O2)C(=O)NS(=O)(=O)C1CC1` [MK-5172], the half-inhibitory concentration (IC50) worked out at 13 nM in test [2], 0.55 nM in test [3], 0.11 nM in test [4] and 108 nM in test [5].

With `CC(C)(C)OC(=O)N[C@H]1CCCCC/C=C\[C@@H]2C[C@@]2(C(=O)NS(=O)(=O)C2CC2)NC(=O)[C@@H]2C[C@@H](OC(=O)N3Cc4cccc(F)c4C3)CN2C1=O` [Danoprevir (ITMN-191), Danoprevir], the figures for the Ki in test [1] (setting [7]) and in test [6] were 1 ± 0.1 nM and 44.8 ± 3.6 nM, respectively. In addition, the “Efficacy against genotype 3 viruses” value in the test with genotype 3 viruses is reported as “reduced efficacy”. In addition, the IC50 is 48 nM in test [2], more than 100 nM in test [3], 0.24 nM in test [4] and 5.7 nM in test [5].

What is called IC50 is the midpoint of a concentration-inhibition curve.
